Broadly, the IC50 is the concentration at which inhibition is half-maximal. Higher therefore signals weaker potency in that assay.

The structures appear in SMILES notation.

Experimental findings from patent publication US20230143612A1 (Arbutus Biopharma Corporation, priority 2020, published 2023) are described below.

Chain of PD-L1 His protein / PD-1 Fc protein (Q9NZQ7 19-238 limits assumed): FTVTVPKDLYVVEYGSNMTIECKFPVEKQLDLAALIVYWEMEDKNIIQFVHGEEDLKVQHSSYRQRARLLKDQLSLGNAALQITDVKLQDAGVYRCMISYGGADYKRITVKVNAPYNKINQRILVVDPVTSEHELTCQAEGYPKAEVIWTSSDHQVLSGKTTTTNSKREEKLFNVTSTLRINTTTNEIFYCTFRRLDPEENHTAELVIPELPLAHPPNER

This test addresses PD-L1 His protein / PD-1 Fc protein (Homo sapiens, UniProt Q9NZQ7). Put plainly: HTRF Assay (PD-1/PD-L1 interaction). Conditions: PD-L1 His 6 nM, PD-1 Fc 6 nM. It counts as binding. The gist of the method:
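Compounds tested from 20 μM down to 0.001 μM (3-fold) against 6 nM PD-L1 His and 6 nM PD-1 Fc, 15 min room temperature incubation. Detection after 1 h at room temperature with Tb cryptate anti-6HIS and XL665 anti-human IgG reagents (mixture at 0.35 nM and 6.7 nM), HTRF signal.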
(In TR-FRET formats the signal depends on donor and acceptor labels being close together.)
In turn, `COc1cc(-c2cccc(-c3cccc(-c4ccn5c(=O)c(CNC[C@@H]6CCC(=O)N6)cnc5c4)c3Cl)c2Cl)c(F)cc1CNC[C@@H]1CCC(=O)N1` [Example 106, 8-(2,2′-Dichloro-2″-fluoro-5″-methoxy-4″-(((((S)-5-oxopyrrolidin-2-yl)methyl)amino)methyl)-[1,1′:3′,1″-terphenyl]-3-yl)-3-(((((S)-5-oxopyrrolidin-2-yl)methyl)amino)methyl)-4H-pyrido[1,2-a]pyrimidin-4-one] gave an IC50 of 4.9 nM.

`COc1nc(-c2cccc(-c3cccc(-c4ccn5c(=O)c(CNC(C)(C)CC(=O)O)cnc5c4)c3Cl)c2Cl)ccc1CNC[C@@H]1CCC(=O)N1` [Example 154, (S)-3-(((8-(2,2′-Dichloro-3′-(6-methoxy-5-((((5-oxopyrrolidin-2-yl)methyl)amino)-methyl)pyridin-2-yl)-[1,1′-biphenyl]-3-yl)-4-oxo-4H-pyrido[1,2-a]pyrimidin-3-yl)methyl)amino)-3-methylbutanoic acid] gave an IC50 of 0.4 nM. To `COc1nc(-c2cccc(-c3cccc(-c4ccc5c(c4Cl)CN(C[C@@H]4CCC(=O)N4)CC5)c3Cl)c2Cl)ccc1CNC[C@@H]1CCC(=O)N1` [Example 427, (S)-5-((8-Chloro-7-(2,2′-dichloro-3′-(6-methoxy-5-(((((S)-5-oxopyrrolidin-2-yl)methyl)-amino)-methyl)-pyridin-2-yl)-[1,1′-biphenyl]-3-yl)-3,4-dihydroisoquinolin-2(1H)-yl)methyl)pyrrolidin-2-one] belongs 5.2 nM; to `COc1nc(-c2cccc(-c3cccc(-c4ccn5c(=O)c(CN(C)CCO)cnc5c4)c3Cl)c2Cl)ccc1CNC[C@@H]1CCC(=O)N1` [Example 281, (S)-8-(2,2′-Dichloro-3′-(6-methoxy-5-((((5-oxopyrrolidin-2-yl)methyl)-amino)-methyl)pyridin-2-yl)-[1,1′-biphenyl]-3-yl)-3-(((2-hydroxyethyl)(methyl)amino)methyl)-4H-pyrido[1,2-a]-pyrimidin-4-one], 0.1 nM.

`COc1nc(-c2cccc(-c3cccc(-c4ccn5c(=O)c(CNCCC(=O)O)cnc5c4)c3Cl)c2Cl)ccc1CNC[C@@H]1CCC(=O)N1` [Example 182, (S)-3-(((8-(2,2′-Dichloro-3′-(6-methoxy-5-((((5-oxopyrrolidin-2-yl)methyl)amino)methyl)pyridin-2-yl)-[1,1′-biphenyl]-3-yl)-4-oxo-4H-pyrido[1,2-a]pyrimidin-3-yl)methyl)amino)propanoic acid] showed an IC50 of 0.1 nM. The compound `COc1nc(-c2cccc(-c3cccc(-c4ccc5c(c4)OCCC5NC[C@@H]4CCC(=O)N4)c3Cl)c2Cl)ccc1CNC[C@@H]1CCC(=O)N1` (mixture of isomers) [Example 326, (5S)-5-((((6-(2,2′-Dichloro-3′-(4-((((S)-5-oxopyrrolidin-2-yl)methyl)amino)chroman-7-yl)-[1,1′-biphenyl]-3-yl)-2-methoxypyridin-3-yl)methyl)amino)methyl)pyrrolidin-2-one] had an IC50 of 24 nM.

Compound `COc1nc(-c2cccc(-c3cccc(-c4ccn5c(=O)c(CN6CC[C@H](C(=O)O)C6)cnc5c4)c3Cl)c2Cl)ccc1CN1CC(CO)C1` [Example 83, (S)-1-((8-(2,2′-Dichloro-3′-(5-((3-(hydroxymethyl)azetidin-1-yl)methyl)-6-methoxypyridin-2-yl)-[1,1′-biphenyl]-3-yl)-4-oxo-4H-pyrido[1,2-a]pyrimidin-3-yl)methyl)pyrrolidine-3-carboxylic acid] returned an IC50 of 0.4 nM. This IC50 lies about 60-fold lower than the previous one. In the case of `COc1nc(-c2cccc(-c3cccc(-c4ccc5c(n4)N(C)CCC5NC[C@@H]4CCC(=O)N4)c3Cl)c2Cl)ccc1CNC[C@@H]1CCC(=O)N1` (single isomer, unassigned) [Example 52] it was 0.8 nM. `COc1nc(-c2cccc(-c3cc(F)cc(-c4ccn5c(=O)c(CNC[C@@H]6CCC(=O)N6)cnc5c4)c3Cl)c2Cl)ccc1CNC[C@@H]1CCC(=O)N1` [Example 140, 8-(2,2′-Dichloro-5-fluoro-3′-(6-methoxy-5-(((((S)-5-oxopyrrolidin-2-yl)methyl)amino)methyl)pyridin-2-yl)-[1,1′-biphenyl]-3-yl)-3-(((((S)-5-oxopyrrolidin-2-yl)methyl)amino)methyl)-4H-pyrido[1,2-a]pyrimidin-4-one] yielded an IC50 of 2 nM. In the case of `COc1nc(-c2cccc(-c3cccc(-c4ccc5nc(C(=O)NCCN)cn5n4)c3Cl)c2Cl)ccc1CNC[C@@H]1CCC(=O)N1` [Example 438, N-(2-Aminoethyl)-6-[2-chloro-3-[2-chloro-3-[6-methoxy-5-[[[(2S)-5-oxopyrrolidin-2-yl]methylamino]methyl]-2-pyridyl]phenyl]phenyl]imidazo[1,2-b]pyridazine-2-carboxamide] it was 14 nM; in that of `COc1nc(-c2cccc(-c3cccc(-c4ccc5c(c4)CNCCN5C)c3Cl)c2Cl)ccc1CNC[C@@H]1CCC(=O)N1` [Example 363, (S)-5-((((6-(2,2′-Dichloro-3′-(1-methyl-2,3,4,5-tetrahydro-1H-benzo[e][1,4]diazepin-7-yl)-[1,1′-biphenyl]-3-yl)-2-methoxypyridin-3-yl)methyl)amino)methyl)pyrrolidin-2-one], 85 nM. In turn, `COc1nc(-c2cccc(-c3cccc(-c4ccn5c(CNC[C@@H]6CCC(=O)N6)cnc5c4)c3Cl)c2Cl)ccc1CNC[C@@H]1CCC(=O)N1` [Example 380] gave an IC50 of 24 nM. In the case of `COc1nc(-c2cccc(-c3cccc(-c4ccc5c(n4)N(C)CCC5NCc4cncc(F)c4)c3Cl)c2Cl)ccc1CNC[C@@H]1CCC(=O)N1` (mixture of isomers) [Example 91, (5S)-5-((((6-(2,2′-Dichloro-3′-(5-(((5-fluoropyridin-3-yl)methyl)amino)-8-methyl-5,6,7,8-tetrahydro-1,8-naphthyridin-2-yl)-[1,1′-biphenyl]-3-yl)-2-methoxypyridin-3-yl)methyl)amino)methyl)pyrrolidin-2-one] it was 180 nM; in that of `COc1nc(-c2cccc(-c3cccc(-c4ccn5c(=O)c(CN[C@H]6C[C@@](C)(O)C6)c(C)nc5c4)c3Cl)c2Cl)ccc1CN[C@H]1C[C@@](C)(O)C1` [Example 230, 8-(2,2′-Dichloro-3′-(5-((((1s,3s)-3-hydroxy-3-methylcyclobutyl)amino)methyl)-6-methoxypyridin-2-yl)-[1,1′-biphenyl]-3-yl)-3-((((1s,3s)-3-hydroxy-3-methylcyclobutyl)amino)methyl)-2-methyl-4H-pyrido[1,2-a]pyrimidin-4-one], 98 nM; in that of `COc1nc(-c2cccc(-c3cccc(-c4ccn5c(=O)c(C6=NCCC(C(=O)O)N6)cnc5c4)c3Cl)c2Cl)ccc1CNC[C@@H]1CCC(=O)N1` (mixture of isomers) [Example 199, 2-(8-(2,2′-Dichloro-3′-(6-methoxy-5-(((((S)-5-oxopyrrolidin-2-yl)methyl)amino)methyl)pyridin-2-yl)-[1,1′-biphenyl]-3-yl)-4-oxo-4H-pyrido[1,2-a]pyrimidin-3-yl)-3,4,5,6-tetrahydropyrimidine-4-carboxylic acid], 0.1 nM. In the case of `COc1nc(-c2cccc(-c3cccc(-c4ccc5c(Cl)c(CNC[C@@H]6CCC(=O)N6)[nH]c5n4)c3Cl)c2Cl)ccc1CNC[C@@H]1CCC(=O)N1` [Example 386, (S)-5-((((3-Chloro-6-(2,2′-dichloro-3′-(6-methoxy-5-(((((S)-5-oxopyrrolidin-2-yl)methyl)-amino)methyl)-pyridin-2-yl)-[1,1′-biphenyl]-3-yl)-1H-pyrrolo[2,3-b]-pyridin-2-yl)methyl)-amino)methyl)-pyrrolidin-2-one] it was 28 nM; in that of `COc1nc(-c2cccc(-c3cccc(-c4ccn5c(=O)c(CNCC(C)(C)OC)cnc5c4)c3Cl)c2Cl)ccc1CNC[C@@H]1CCC(=O)N1` [Example 345, (S)-8-(2,2′-Dichloro-3′-(6-methoxy-5-((((5-oxopyrrolidin-2-yl)methyl)amino)methyl)pyridin-2-yl)-[1,1′-biphenyl]-3-yl)-3-(((2-methoxy-2-methylpropyl)amino)methyl)-4H-pyrido[1,2-a]pyrimidin-4-one], 42 nM. To `COc1nc(-c2cccc(-c3cccc(-c4nc5c(c(OC)n4)CN(C[C@@H]4CCC(=O)N4)CC5)c3Cl)c2Cl)ccc1CNC[C@@H]1CCC(=O)N1` [Example 471, (S)-5-((((6-(2,2′-Dichloro-3′-(4-methoxy-6-(((S)-5-oxopyrrolidin-2-yl)methyl)-5,6,7,8-tetrahydropyrido[4,3-d]pyrimidin-2-yl)-[1,1′-biphenyl]-3-yl)-2-methoxypyridin-3-yl)methyl)amino)methyl)pyrrolidin-2-one] belongs 0.1 nM. `Cc1c(-c2ccn3c(=O)c(CNC[C@@H]4CCC(=O)N4)cnc3c2)cccc1-c1cccc(-c2ccc3c(c2)CCC3NC[C@@H]2CCC(=O)N2)c1Cl` (stereo partly drawn) [Example 76, 8-(2′-Chloro-2-methyl-3′-(1-((((S)-5-oxopyrrolidin-2-yl)methyl)amino)-2,3-dihydro-1H-inden-5-yl)-[1,1′-biphenyl]-3-yl)-3-(((((S)-5-oxopyrrolidin-2-yl)methyl)amino)methyl)-4H-pyrido[1,2-a]pyrimidin-4-one] had an IC50 of 3.4 nM. In the case of `COc1nc(-c2cccc(-c3cccc(-c4ccn5c(=O)c(CNC[C@@H]6CCC(=O)N6)cnc5c4)c3C)c2Cl)ccc1CNC[C@@H]1CCC(=O)N1` [Example 32, 8-(2′-Chloro-3′-(6-methoxy-5-(((((S)-5-oxopyrrolidin-2-yl)methyl)amino)methyl)pyridin-2-yl)-2-methyl-[1,1′-biphenyl]-3-yl)-3-(((((S)-5-oxopyrrolidin-2-yl)methyl)amino)methyl)-4H-pyrido[1,2-a]pyrimidin-4-one] it was 2.3 nM; in that of `CCc1nc2cc(-c3cccc(-c4cccc(-c5ccc(CNC[C@@H]6CCC(=O)N6)c(OC)n5)c4Cl)c3Cl)ccn2c(=O)c1CNC[C@@H]1CCC(=O)N1` [Example 399, 8-(2,2′-Dichloro-3′-(6-methoxy-5-(((((S)-5-oxopyrrolidin-2-yl)methyl)amino)methyl)pyridin-2-yl)-[1,1′-biphenyl]-3-yl)-2-ethyl-3-(((((S)-5-oxopyrrolidin-2-yl)methyl)amino)methyl)-4H-pyrido[1,2-a]pyrimidin-4-one], 110 nM.
